The assay relates to HIV-1. The assay is described as follows: microbe, parasite or virus in culture. The assay is classed as cell-based, HIV-1 (H9IIIB or NL4-3 virus). The method, then:
HIV-1 replication was monitored using MT4-gag-GFP clone D3 (hereafter designate MT4-GFP), which are MT-4 cells modified to harbor a GFP reporter gene, the expression of which is dependent on the HIV-1 expressed proteins tat and rev. Productive infection of an MT4-GFP cell with HIV-1 results in GFP expression approximately 24 h post-infection.
MT4-GFP cells were maintained at 37° C./5% CO2/90% relative humidity in RPMI 1640 supplemented with 10% fetal bovine serum, 100 U/ml penicillin/streptomycin, and 400 μg/ml G418 to maintain the reporter gene. For infections, MT4-GFP cells were placed in the same medium lacking G418 and infected overnight with H9IIIB or NL4-3 virus at an approximate multiplicity of infection of 0.01 in the same incubation conditions. Cells were then washed and resuspended in either RPMI 1640 containing no serum at 1.6×10^5 cells/mL (serum free conditions), 10% normal human serum at 1.6×10^5 cells/mL (10% NHS conditions) or in 100% normal human serum at 2×10^5 cells/mL (100% NHS conditions). Compound plates were prepared by dispensing compounds taken up in DMSO into wells of 384 well poly D lysine-coated plates (0.2 μl/well) using an ECHO acoustic dispenser. Each compound was tested in a 10 point serial 3-fold dilution (typical final concentrations: 4.2 μM-0.21 nM). Controls included no inhibitor (DMSO only) and a combination of three antiviral agents (efavirenz, indinavir, and the integrase strand transfer inhibitor L-002254051 at final concentrations of 4 μM each). Cells were added (50 μL/well) to compound plates and the infected cells were maintained at 37° C./5% CO2/90% relative humidity.
Infected cells were quantified at two time points, ˜48 h and ˜72 h post-infection, by counting the number of green cells in each well using an Acumen eX3 scanner. […] Inhibition of R0 is calculated for each well, and IC50 value was determined using non-linear 4-parameter curve fitting.

[1] abbreviates: Human immunodeficiency virus 1, read-out: WILD TYPE CELL ASSAY Viking IP (0% NHS) (nM).
[2] abbreviates: Human immunodeficiency virus 1, read-out: WILD TYPE CELL ASSAY Viking IP (100% NHS) (nM).
[3] abbreviates: read-out: WILD TYPE CELL ASSAY Viking IP (0% NHS).
[4] abbreviates: read-out: WILD TYPE CELL ASSAY Viking IP (100% NHS).

The results in this text go back to patent US20180099967A1, “FUSED TRICYCLIC HETEROCYCLIC COMPOUNDS AS HIV INTEGRASE INHIBITORS” (MERCK SHARP & DOHME CORP., priority 2015, published 2018).

SMILES strings stand for the structures. pIC50: −log10 of the molar value. Read-outs that look alike come from different tables or passages of the source.

Consider `CCN[C@H]1C[C@H]2CN(CC)C(=O)c3c(O)c(=O)c(C(=O)NCc4ccc(F)cc4F)c1n32` [Compound 10], for which the IC50 is, setting by setting: under setting [1], 1 nM; under setting [2], 170 nM.

For `CCN[C@H]1C[C@@H]2CN(CC)C(=O)c3c(O)c(=O)c(C(=O)NCc4cccc(F)c4F)c1n32` [Compound 17], the IC50 was found to be 14 nM under setting [1] and 1980 nM under setting [2].

Turning to `CCN1C[C@H]2C[C@H](NC)c3c(C(=O)NCc4ccc(F)cc4F)c(=O)c(O)c(n32)C1=O` [Compound 7], the IC50 runs as follows: under setting [1], 2 nM; under setting [2], 3420 nM.

Turning to `CCN1C[C@H]2C[C@@H](NS(C)(=O)=O)c3c(C(=O)NCc4ccc(F)cc4F)c(=O)c(O)c(n32)C1=O` [Compound 44], the pIC50 runs as follows: under setting [3], 8.70; under setting [4], 7.72.

`CCN1C[C@@H]2C[C@@H](N3CCCC3)c3c(C(=O)NCc4cccc(Cl)c4F)c(=O)c(O)c(n32)C1=O` [Compound 42]: the IC50 runs as follows: under setting [1], 5 nM; under setting [2], 16 nM.

Consider `CCN1C[C@@H]2CC(N3CCCC3)c3c(C(=O)NCc4ccc(F)cc4F)c(=O)c(O)c(n32)C1=O` (single isomer, unassigned) [Compound 34], for which the pIC50 reads like this: under setting [3], 7.26; under setting [4], 6.31.

For the compound `CCN1C[C@H]2C[C@@H](NCc3ccccc3)c3c(C(=O)NCc4ccc(F)cc4F)c(=O)c(O)c(n32)C1=O` [Compound 26], the IC50 under setting [1] was 32 nM and the IC50 under setting [2] was 108 nM.

For the compound `CCN1C[C@H]2C[C@H](NCCOC)c3c(C(=O)NCc4ccc(F)cc4F)c(=O)c(O)c(n32)C1=O` [Compound 27], the IC50 under setting [1] came to 17 nM and the IC50 under setting [2] was 968 nM.

Take `[2H]C([2H])([2H])C([2H])([2H])N[C@H]1C[C@@H]2CN(CC)C(=O)c3c(O)c(=O)c(C(=O)NCc4ccc(F)cc4F)c1n32` [Compound 31]: the IC50 runs as follows: under setting [1], 5 nM; under setting [2], 3720 nM.

Regarding `CCN1C[C@@H]2C[C@@H](NC(C)=O)c3c(C(=O)NCc4ccc(F)cc4F)c(=O)c(O)c(n32)C1=O` [Compound 56], the IC50 amounted to 2 nM under setting [1] and 14 nM under setting [2].

In the case of `CCN1C[C@H]2C[C@H](NS(C)(=O)=O)c3c(C(=O)NCc4ccc(F)c(F)c4F)c(=O)c(O)c(n32)C1=O` [Compound 49], the IC50 is, setting by setting: under setting [1], 11 nM; under setting [2], 12500 nM.

Turning to `CCN[C@@H]1C[C@@H]2CN(CC)C(=O)c3c(O)c(=O)c(C(=O)NCc4ccc(F)c(Cl)c4F)c1n32` [Compound 16], the IC50 was greater than 42000 nM under setting [1] and greater than 42000 nM under setting [2].

`CCN1C[C@H]2C[C@@H](NS(=O)(=O)c3ccc(C)cc3)c3c(C(=O)NCc4ccc(F)cc4F)c(=O)c(O)c(n32)C1=O` [Compound 52]: the IC50 by setting is: under setting [1], 22 nM; under setting [2], 310 nM.

Consider `CCN1C[C@@H]2C[C@H](N)c3c(C(=O)NCc4ccc(F)cc4F)c(=O)c(O)c(n32)C1=O` [Compound 2], for which the pIC50 under setting [3] was 7.92 and the pIC50 under setting [4] is 6.43.

Consider `CCNC1CC2CN(CCOC)C(=O)c3c(O)c(=O)c(C(=O)NCc4ccc(F)cc4F)c1n32` (single isomer, unassigned) [Compound 67], for which the pIC50 by setting is: under setting [3], 8.15; under setting [4], 7.51.

With `CCN1C[C@H]2C[C@@H](NC(C)=O)c3c(C(=O)NCc4ccc(F)cc4F)c(=O)c(O)c(n32)C1=O` [Compound 55], the IC50 is, setting by setting: under setting [1], 8 nM; under setting [2], 540 nM.

`CCN1C[C@H]2C[C@@H](NS(C)(=O)=O)c3c(C(=O)NCc4ccc(F)c(Cl)c4F)c(=O)c(O)c(n32)C1=O` [Compound 50]: the IC50 under setting [1] stood at 2 nM and the IC50 under setting [2] worked out at 24 nM.

Consider `CCN1C[C@H]2C[C@@H](NCCC(F)(F)F)c3c(C(=O)NCc4ccc(F)cc4F)c(=O)c(O)c(n32)C1=O` [Compound 30], for which the IC50 was determined as 6 nM under setting [1] and 31 nM under setting [2].

`CCN[C@@H]1C[C@@H]2CN(CC)C(=O)c3c(O)c(=O)c(C(=O)NCc4c(F)cc(F)cc4F)c1n32` [Compound 14]: the IC50 was 6 nM under setting [1] and 47 nM under setting [2].

For `CCN[C@@H]1C[C@@H]2CN(CC)C(=O)c3c(O)c(=O)c(C(=O)NCc4ccc(F)cc4F)c1n32` [Compound 12], the IC50 came out at 10 nM under setting [1] and 32 nM under setting [2].

For `CCN1C[C@H]2C[C@H](NS(C)(=O)=O)c3c(C(=O)NCc4ccc(F)c(Cl)c4F)c(=O)c(O)c(n32)C1=O` [Compound 51], the IC50 under setting [1] stood at 9 nM and the IC50 under setting [2] turned out to be 17800 nM.

On to `CCN[C@@H]1C[C@@H]2CN(CC)C(=O)c3c(O)c(=O)c(C(=O)NCc4cccc(F)c4F)c1n32` [Compound 18], for which the IC50 runs as follows: under setting [1], 10 nM; under setting [2], 25 nM.

For `CCN1C[C@@H]2C[C@@H](N(C)C)c3c(C(=O)NCc4ccc(F)cc4)c(=O)c(O)c(n32)C1=O` [Compound 39], the IC50 under setting [1] came to 3 nM and the IC50 under setting [2] was determined as 22 nM.

For `CCN[C@@H]1C[C@@H]2CN(CC)C(=O)c3c(O)c(=O)c(C(=O)NCc4cccc(Cl)c4F)c1n32` [Compound 20], the IC50 reads like this: under setting [1], 5 nM; under setting [2], 28 nM.

As to `CCN[C@H]1C[C@@H]2CN(CC)C(=O)c3c(O)c(=O)c(C(=O)NCc4cccc(Cl)c4F)c1n32` [Compound 19], the IC50 is, setting by setting: under setting [1], 10 nM; under setting [2], 10900 nM.

On to `CCN1C[C@@H]2C[C@@H](NC)c3c(C(=O)NCc4ccc(F)cc4F)c(=O)c(O)c(n32)C1=O` [Compound 5], for which the IC50 under setting [1] was determined as 2 nM and the IC50 under setting [2] came to 17 nM.

Regarding `CCN1C[C@@H]2C[C@@H](N)c3c(C(=O)NCc4ccc(F)cc4F)c(=O)c(O)c(n32)C1=O` [Compound 1], the pIC50 is 8.70 under setting [3] and 7.72 under setting [4].

`CCN1C[C@H]2C[C@H](NC(C)=O)c3c(C(=O)NCc4ccc(F)cc4F)c(=O)c(O)c(n32)C1=O` (single isomer, unassigned) [Compound 54]: the IC50 came out at 6 nM under setting [1] and 38 nM under setting [2].

Regarding `CCN1C[C@H]2C[C@H](NCC3CC3)c3c(C(=O)NCc4ccc(F)cc4F)c(=O)c(O)c(n32)C1=O` [Compound 23], the IC50 by setting is: under setting [1], 43 nM; under setting [2], 1090 nM.

For the compound `CCNC1CC2CN(CCOC)C(=O)c3c(O)c(=O)c(C(=O)NCc4ccc(F)cc4F)c1n32` (single isomer, unassigned) [Compound 65], under setting [1], the IC50 came out at 12 nM. For the same compound, the pIC50 under setting [4] is 7.38.

Turning to `CCCN[C@H]1C[C@@H]2CN(CC)C(=O)c3c(O)c(=O)c(C(=O)NCc4ccc(F)cc4F)c1n32` [Compound 21], the IC50 is, setting by setting: under setting [1], 17 nM; under setting [2], 2290 nM.

For the compound `CCN1C[C@H]2C[C@@H](NCCOC)c3c(C(=O)NCc4ccc(F)cc4F)c(=O)c(O)c(n32)C1=O` [Compound 28], the IC50 by setting is: under setting [1], 6 nM; under setting [2], 21 nM.

Regarding `CCN1C[C@@H]2C[C@H](NC(C)=O)c3c(C(=O)NCc4ccc(F)cc4F)c(=O)c(O)c(n32)C1=O` [Compound 57], the IC50 is, setting by setting: under setting [1], 24 nM; under setting [2], 135 nM.

Regarding `CCN1C[C@H]2CC(N3CCCC3)c3c(C(=O)NCc4ccc(F)cc4F)c(=O)c(O)c(n32)C1=O` (single isomer, unassigned) [Compound 36], the pIC50 is 8.22 under setting [3] and 5.92 under setting [4].

Turning to `CCN[C@H]1C[C@@H]2CN(CC)C(=O)c3c(O)c(=O)c(C(=O)NCc4c(F)cc(F)cc4F)c1n32` [Compound 13], the IC50 runs as follows: under setting [1], 7 nM; under setting [2], 4020 nM.

On to `CCN1C[C@H]2C[C@@H](NS(C)(=O)=O)c3c(C(=O)NCc4ccc(F)c(F)c4F)c(=O)c(O)c(n32)C1=O` [Compound 48], for which the IC50 under setting [1] amounted to 7 nM and the IC50 under setting [2] is 23 nM.

Regarding `CCN1C[C@H]2C[C@H](NS(C)(=O)=O)c3c(C(=O)NCc4ccc(F)cc4F)c(=O)c(O)c(n32)C1=O` [Compound 45], the pIC50 under setting [3] is 8.15 and the pIC50 under setting [4] is 5.92.

On to `CCN1C[C@@H]2C[C@@H](N3CCCC3)c3c(C(=O)NCc4cccc(F)c4F)c(=O)c(O)c(n32)C1=O` (single isomer, unassigned) [Compound 43], for which the IC50 was determined as 10 nM under setting [1] and 42 nM under setting [2].

Consider `CCN1C[C@@H]2CC(N3CCCC3)c3c(C(=O)NCc4ccc(F)cc4F)c(=O)c(O)c(n32)C1=O` (single isomer, unassigned) [Compound 33], for which the pIC50 is, setting by setting: under setting [3], 8.05; under setting [4], 7.49.

With `CCN[C@H]1C[C@@H]2CN(CC)C(=O)c3c(O)c(=O)c(C(=O)NCc4ccc(F)c(Cl)c4F)c1n32` [Compound 15], the IC50 by setting is: under setting [1], 13 nM; under setting [2], greater than 8400 nM.

`CCN1C[C@H]2C[C@H](N)c3c(C(=O)NCc4ccc(F)cc4F)c(=O)c(O)c(n32)C1=O` [Compound 3]: the IC50 under setting [1] stood at 10 nM and the IC50 under setting [2] stood at 4500 nM.
